Experiments:
[1] = tested on: Plasmodium falciparum; test: NOVARTIS: Inhibition of Plasmodium falciparum 3D7 (drug-susceptible) proliferation in erythrocyte-based infection assay; type: functional, organism-based; details: Plasmodium falciparum, 3D7
[2] = tested on: Plasmodium falciparum; test: NOVARTIS: Inhibition of Plasmodium falciparum W2 (drug-resistant) proliferation in erythrocyte-based infection assay; type: functional, organism-based; details: Plasmodium falciparum, W2; read-out: EC50
[3] = NOVARTIS: Cytotoxicity against human hepatocellular carcinoma cell line (Huh7); type: toxicity, cell-based, Huh-7; details: Huh7 cells (hepatocellular carcinoma cell line)

SMILES	EC50 [1]	EC50 [2]	CC50 [3]
O=C(Nc1ccc(NC(=O)c2ccco2)cc1Cl)c1ccccc1	> 1650 nM	> 348 nM	> 10 µM
CC(C)CC(NC(=O)/C(=C\c1ccco1)NC(=O)c1ccccc1)C(=O)OCc1ccccc1 (stereo unspecified)	> 1250 nM	> 625 nM	> 10 µM
COC(=O)c1ccc(S(=O)(=O)N2CCC3(CC2)Nc2ccccc2-n2cccc23)cc1	> 1250 nM	> 163 nM	> 10 µM
O=C(COC(=O)c1ccccc1O)c1ccc(Br)cc1	1540 nM	1820 nM	> 10 µM
CCCCN(C(=O)Nc1c(C(C)C)cccc1C(C)C)C(CC)c1nc2ccccc2c(=O)n1-c1cccc(Cl)c1 (stereo unspecified)	> 1250 nM	< 21.2 nM	> 6.29 µM
O=C(Nc1ccc(C23CC4CC(CC(c5ccccc5)(C4)C2)C3)cc1)c1cccs1	645 nM	468 nM	> 100 µM
CCn1c2ccccc2[n+]2c(C)cc(C)nc12	266 nM	199 nM	> 100 µM
CCCCOc1ccc(N(C(C)=O)C2=C(N3CCCCC3)C(=O)c3ccccc3C2=O)cc1	5.64 nM	4.14 nM	54.4 µM
COc1ccc(N(CC(=O)Nc2cc(OC)ccc2OC)S(=O)(=O)c2ccc(C)cc2)cc1	> 1250 nM	> 583 nM	> 10 µM
COC(=O)C[S+]([O-])c1ccccc1 (stereo unspecified)	647 nM	543 nM	> 10 µM
CCOc1cc(C2CC(=O)NC3=C2C(=O)CC(c2cc(OC)ccc2OC)C3)ccc1O (stereo unspecified)	431 nM	123 nM	> 100 µM
COc1ccc(OC)c(-c2ccc(O)c(CN(C)CC(O)c3ccccc3)c2)c1 (stereo unspecified)	243 nM	124 nM	66.3 µM
CCOC(=O)C1=C(N)N(c2cccc([N+](=O)[O-])c2)C2=C(C(=O)CC(C)(C)C2)C1c1ccc(Br)cc1 (stereo unspecified)	1260 nM	150 nM	> 100 µM
Cc1ccc(S(=O)(=O)NCCCCNc2ccnc3cc(Cl)ccc23)cc1	575 nM	< 20.4 nM	> 9.02 µM
Cc1cccnc1NC(c1ccc([N+](=O)[O-])cc1)c1ccc2cccnc2c1O (stereo unspecified)	140 nM	214 nM	15 µM
COc1ccc(-n2c(SC(C)C)nc3sc4c(c3c2=O)CCN(C)C4)cc1	2210 nM	1850 nM	> 100 µM
Cc1nc2c(-c3ccccc3)c(C)nn2c(C)c1CC(=O)NCc1ccccn1	> 12500 nM	9140 nM	> 100 µM
COc1ccc(C2CC(=O)C3=C(C2)NC(C)=C(C(=O)OC2CCCC2)C3c2ccc(Cl)cc2)cc1OC (stereo unspecified)	29 nM	16.7 nM	21.6 µM
CC1=NOC(=O)C1=Cc1ccc(-c2ccc([N+](=O)[O-])cc2)o1	> 12500 nM	6500 nM	> 100 µM
CCCCN(CC)C(=O)CSc1nc2ccccc2c(=O)n1Cc1ccco1	> 594 nM	> 1250 nM	> 10 µM
O=Cc1c(OCc2ccc(Cl)cc2Cl)ccc2ccccc12	719 nM	426 nM	> 10 µM
COC(=O)c1ccc(C(=O)Nc2ccc(-c3nc4cc(NC(=O)c5ccc(C(=O)OC)cc5)ccc4[nH]3)cc2)cc1	855 nM	1090 nM	> 10 µM
CCOC(=O)c1c(NC(=O)c2cccnc2)sc(C)c1CC	> 1090 nM	> 714 nM	> 10 µM

SMILES	EC50 [1]	EC50 [2]	CC50 [3]
CCOC(=O)c1ccc(NC(=O)c2ccc(S(=O)(=O)N3CC(C)CC(C)C3)cc2)cc1 (stereo unspecified)	666 nM	1240 nM	> 100 µM
CCOC(=O)c1cccc(NC(=O)CC2C(=O)N(c3ccc(F)cc3)C(=O)N2CCC(C)C)c1 (stereo unspecified)	202 nM	101 nM	> 100 µM
CCOC(=O)C1=C(C)N(c2ccc(OCC)cc2)C(=O)C1=Cc1ccc(C(C)C)cc1	3500 nM	> 12500 nM	> 100 µM
O=C(C=Cc1ccccc1)Nc1ccc(-c2nc3cc(NC(=O)C=Cc4ccccc4)ccc3[nH]2)cc1	56 nM	116 nM	5.7 µM
Cn1nc(C(F)(F)F)c(-c2ccc(F)cc2)c1NC(=O)Nc1ccc(F)cc1F	291 nM	448 nM	29.2 µM
FC(F)(F)c1cccc(NC(=S)N2CCCC2c2ccccc2Cl)c1 (stereo unspecified)	187 nM	185 nM	> 100 µM
CC(=O)Nc1ccc(S(=O)(=O)NC2C(C)(C)C3CC[C@]2(C)C3)cc1 (stereo partly specified)	> 1250 nM	> 184 nM	> 10 µM
COc1ccc(Nc2nc(NN=Cc3cc(Br)c(O)cc3O)nc(Nc3ccc([N+](=O)[O-])cc3)n2)cc1	75 nM	198 nM	9.58 µM
CCc1c(C#N)c(N)nc(SCC(=O)c2ccc(C)cc2C)c1C#N	308 nM	196 nM	> 100 µM
Cc1ncc(CCCCN(C)C)c2c1[nH]c1ccccc12	472 nM	325 nM	18.8 µM
CCC1CCCCN1C(=O)c1cc(-c2ccccc2OC)on1 (stereo unspecified)	> 598 nM	340 nM	> 10 µM
C=C(C)C(=O)OCCc1ccc(O)c(-n2nc3ccccc3n2)c1	> 1250 nM	1010 nM	> 10 µM
CC(C)CNC(=O)c1cnc(NCCCn2ccnc2)nc1NCC(C)C	768 nM	1610 nM	> 10 µM
CCN(CC)CCCNC(=S)N(CCc1cccc(C)c1)Cc1cc2cc(OC)c(OC)cc2[nH]c1=O	2430 nM	747 nM	18.6 µM
COc1ccc(CN(Cc2cc3cccc(C)c3nc2N2CCCC(O)C2)C(=O)c2ccc(OC)c(OC)c2)cc1 (stereo unspecified)	1420 nM	1220 nM	> 100 µM
C=CCn1c(SCC(=O)Nc2ccccc2C)nc2sc(C)cc2c1=O	4280 nM	1800 nM	> 100 µM
CCc1nc(N)nc(N)c1-c1ccc(Cl)cc1 [PYRIMETHAMINE]	31.9 nM	14.6 nM	45.6 µM
O=C(Nc1ccc(C2=NCCN2)cc1)Nc1cccc(C(=O)Nc2ccc(C3=NCCN3)cc2)c1	108 nM	211 nM	> 10 µM
Cc1cc(-c2cn[nH]c2C2CCCN(C(=O)Cc3ccccc3F)C2)on1 (stereo unspecified)	> 1250 nM	> 969 nM	> 10 µM
CCOC(=O)c1c(NC(=O)c2ccc([N+](=O)[O-])cc2[N+](=O)[O-])sc2c1CCCC2	> 12500 nM	1040 nM	> 100 µM
CC(C)CNC(=O)c1cnc(NCCc2ccncc2)nc1NCCc1ccccc1	809 nM	728 nM	> 10 µM
CCCOc1ccc2c(c1)C(=NN=C(N)N)c1cc(OCCC)ccc1-2	270 nM	323 nM	> 10 µM
Cc1ccc(NC(=O)C2CSC(c3cccc(F)c3)N2C(=O)c2ccc(C(C)(C)C)cc2)cc1 (stereo unspecified)	449 nM	349 nM	> 100 µM

SMILES	EC50 [1]	EC50 [2]	CC50 [3]
C=CCNC(=O)c1ccc2c(c1)N=C(CC(C)c1ccccc1)N(CC1CCCCC1)C2 (stereo unspecified)	> 1250 nM	1530 nM	> 10 µM
O=c1c2ccccc2nc(C=Cc2ccc([N+](=O)[O-])o2)n1-c1ccc(Br)cc1	> 12300 nM	1920 nM	> 100 µM
C[n+]1c(/C=C\c2ccc(F)cc2)ccc2ccccc21	274 nM	14.2 nM	> 10 µM
Oc1cccc(Nc2nc(NCC3CCCO3)c3ccccc3n2)c1 (stereo unspecified)	266 nM	341 nM	6.98 µM
O=C(NCCCN1CCCC1=O)c1cccn2c(=O)c3ccc(Cl)cc3nc12	> 1350 nM	> 918 nM	> 10 µM
O=C(c1ccc([N+](=O)[O-])cc1)c1ccc(N2CCOCC2)c([N+](=O)[O-])c1	4200 nM	2720 nM	> 100 µM
CCOC(=O)c1c(S(=O)(=O)N2CCCC(C(=O)N3CCN(c4cccc(C)c4C)CC3)C2)c(C)n(C)c1C (stereo unspecified)	923 nM	2120 nM	> 100 µM
CC(=O)N1CCc2cc(Br)cc(S(=O)(=O)N3CCCC(C)C3)c21 (stereo unspecified)	> 1730 nM	1320 nM	> 10 µM
CCN(CC)CCCNCC(=O)N1c2ccccc2Sc2ccccc21	> 12500 nM	1250 nM	> 100 µM
CCOC(=O)c1c(C)n(Cc2ccccc2)c2c1cc(O)c1c2c(-c2ccccc2)nn1-c1ccccc1	1060 nM	345 nM	> 100 µM
CC1=CC(=C(C#N)c2nc3ccccc3s2)C=C(C)N1CC1CCCO1 (stereo unspecified)	411 nM	670 nM	> 100 µM
CC1=C(C(=O)OC(C)C)C(c2ccc(Br)cc2)C2=C(CC(c3ccc(Cl)cc3)CC2=O)N1 (stereo unspecified)	1440 nM	404 nM	> 100 µM
COc1cc(NC(C)CCCN(Cc2ccc(Cl)cc2)C(=O)C(C)C)c2ncccc2c1 (stereo unspecified)	1680 nM	1120 nM	13.2 µM
COc1ccc(OC)c(-c2ccc(O)c(CNCCc3ccccc3F)c2)c1	1140 nM	790 nM	> 10 µM
Cc1ccc(C)c(CN2C(=O)c3ccccc3S(=O)(=O)c3ccc(C(=O)NCCCN4CCCC(C)C4)cc32)c1 (stereo unspecified)	1070 nM	1750 nM	12 µM
NC(=N[N+](=O)[O-])Nc1ccc(NC(=O)Nc2ccc(Cl)cc2)cc1	> 900 nM	298 nM	> 9.61 µM
CC1CCCN(c2ccc(C(=O)NC3CC3)cc2[N+](=O)[O-])C1 (stereo unspecified)	559 nM	1460 nM	> 100 µM
COc1ccc(Cl)cc1NC(=O)C1c2ccccc2C(=O)N(CC(C)C)C1c1cccs1 (stereo unspecified)	837 nM	272 nM	> 100 µM
COc1ccccc1CN1CCc2nc(-c3cnccn3)sc2C1	9230 nM	4440 nM	23 µM
COc1ccc(OC)c(-c2ccc(O)c(CNC3CCCCC3)c2)c1	842 nM	953 nM	> 10 µM
CC1CCN(C(=O)C(C)N(c2ccccc2)S(C)(=O)=O)CC1 (stereo unspecified)	7200 nM	8320 nM	> 100 µM

Source: ChEMBL document CHEMBL1156829 (Proc Natl Acad Sci U S A, 2008)
